Measured values taken from the supplement of paper PMC8882468.
± gives the standard deviation of the averaged measurements.

Key:
Test in all cases: CTG-3D luminescence at 96 h relative to day-0 seeding control (ratio to day 0); higher = more growth / less cytotoxicity; PDxO 3D drug screen (set 2), 96 h, CTG-3D normalised to day-0 seeding control.
[1] = system: HCI-005.E2 (organoid from a breast cancer xenograft with a HER2-positive history)
[2] = system: HCI-010 (organoid from a breast cancer xenograft)
[3] = system: HCI-011.E2 (organoid from an ER-positive breast cancer xenograft)
[4] = system: HCI-012 (organoid from a breast cancer xenograft)
[5] = system: HCI-016 (organoid from a triple-negative breast cancer xenograft)
[6] = system: HCI-017.E2 (organoid from an ER-positive breast cancer xenograft)

CC(C)n1nc(-c2ccc3oc(N)nc3c2)c2c(N)ncnc21 [sapanisertib]
CTG-3D luminescence at 96 h
Settings	12.5 pM	0.00025 µM	0.005 µM	0.1 µM	1 µM	10 µM	100 µM	625 fM
[1]	1.96 ± 0.49	2.23 ± 0.41	2.42 ± 0.13	1.23 ± 0.85	0.685 ± 0.28	0.506 ± 0.066	0.0873 ± 0.017	1.98 ± 0.6
[3]	1.55 ± 0.24	1.65 ± 0.35	0.974 ± 0.011	0.413 ± 0.1	0.187 ± 0.05	0.228 ± 0.036	0.277 ± 0.05	1.96 ± 0.3
[6]	2.17 ± 0.34	2.44 ± 0.51	1.79 ± 0.052	0.877 ± 0.12	0.558 ± 0.031	0.399 ± 0.099	0.125 ± 0.061	2.58 ± 0.079

CTG-3D luminescence at 96 h
Settings	12.5 pM	0.00025 µM	0.005 µM	0.1 µM	1 µM	10 µM	100 µM	625 fM
[2], days in culture: 79	1.62	1.71	1.53	0.599	0.388	0.119	0.00579	1.95
[2], days in culture: 86	2.29	2.56	2.36	0.928	0.647	0.182	0.012	2.51
[2], days in culture: 102	1.31	1.4	1.07	0.401	0.241	0.0381	0.00408	1.02
[2], days in culture: 164	1.54	1.67	1.55	0.695	0.643	0.245	0.0314	1.37
[3], days in culture: 74	2.73	2.43	1.98	0.488	0.142	0.167	0.138	2.6
[4], days in culture: 214	3	1.84	1.05	1.27	0.635	0.331	0.0967	2.11
[4], days in culture: 243	1.95	2.36	1.77	1.16	0.476	0.522	0.156	3.05
[4], days in culture: 256	2.05	2.28	2.44	1.31	0.395	0.305	0.171	2.12
[4], days in culture: 284	1.65	2.83	1.59	1.13	0.451	0.248	0.147	3.7
[5], days in culture: 305	2.57	3.24	2.48	1.62	0.527	0.566	0.455	3.26
[5], days in culture: 327	1.38	1.23	1.37	0.784	0.464	0.679	0.258	1.7
[5], days in culture: 341	2.37	1.72	2.04	1.14	0.566	0.673	0.378	2.96
[5], days in culture: 397	1.83	2.36	1.47	1.2	0.701	0.688	0.324	2.37
[6], days in culture: 85	2.14	1.78	2.08	0.908	0.515	0.249	0.14	2.37

C[C@@H](Nc1cc(F)cc(F)c1)c1cc(C(=O)N(C)C)cc2c(=O)cc(N3CCOCC3)oc12 [AZD-8186]
CTG-3D luminescence at 96 h
Settings	12.5 pM	0.00025 µM	0.005 µM	0.1 µM	1 µM	10 µM	100 µM	625 fM
[1]	1.82 ± 0.35	2.18 ± 0.31	2.26 ± 0.27	2.54 ± 0.52	2.24 ± 0.59	1.51 ± 0.29	0.592 ± 0.079	1.97 ± 0.52
[3]	1.45 ± 0.15	1.9 ± 0.33	1.54 ± 0.0099	1.81 ± 0.39	1.47 ± 0.066	1.01 ± 0.11	0.293 ± 0.16	2.13 ± 0.45
[6]	2.08 ± 0.29	2.64 ± 0.68	2.27 ± 0.18	2.48 ± 0.5	1.89 ± 0.45	1.096 ± 0.0042	0.252 ± 0.03	2.74 ± 0.23

CTG-3D luminescence at 96 h
Settings	12.5 pM	0.00025 µM	0.005 µM	0.1 µM	1 µM	10 µM	100 µM	625 fM
[2], days in culture: 79	1.88	1.85	1.94	1.98	1.58	1.1	0.138	2.14
[2], days in culture: 86	2.26	2.36	2.34	2.1	1.99	1.67	0.321	2.16
[2], days in culture: 102	1.18	0.973	1.18	1.19	1.19	0.856	0.0314	1.26
[2], days in culture: 164	1.6	1.49	1.64	1.37	1.4	1.02	0.0763	1.52
[3], days in culture: 74	2.16	1.88	1.79	2.21	1.49	1.12	0.136	2.4
[4], days in culture: 214	3.16	3.58	2.36	2.15	1.61	1.53	0.299	3
[4], days in culture: 243	1.81	2.44	1.8	2.35	1.56	1.4	0.468	2.52
[4], days in culture: 256	2.2	2.24	2.12	3.26	1.35	0.936	0.409	2.45
[4], days in culture: 284	1.94	2.57	2.11	2.5	1.45	2.64	0.535	2.65
[5], days in culture: 305	3.52	4.53	2.53	4.16	1.53	1.97	1.51	4.97
[5], days in culture: 327	1.3	1.35	1.53	2.67	0.902	1.31	0.672	1.61
[5], days in culture: 341	2.01	1.59	2.07	1.7	1.81	2.04	0.88	2.55
[5], days in culture: 397	2.34	2.9	1.49	1.76	2.14	1.87	0.71	2.46
[6], days in culture: 85	1.85	1.86	1.62	2.05	1.45	1.14	0.197	2.07
